Here are results for six compounds from publication PMC10030075 (Medicinal Chemistry Research, 2023).

A short description of data set [1]: in vitro. The following applies: human, microsomes, pH 7.4.
For a further data set, the system named is HBV. The experiment in a line: Preliminary screening of anti-HBV activity. It is filed as cell-based, hepatitis B virus. Conditions: inhibition of HBsAg and HBeAg expression, HepG2.2.15 cells.
Data set [2] in a line: in vitro. The following applies: human, microsomes, pH 7.4. This is another data set of the same source.
The next data set relates to duck hepatitis B virus. The following applies: in vivo; cited from earlier work.
A further data set has as its system hepatic fibrosis. The following applies: 50 mg/kg or 100 mg/kg, by increasing phospho-FOXO1 expression; cited from earlier work.
For a further data set, the system named is Newcastle disease virus. Conditions: cited from earlier work.

The half-life is the time in which the quantity being followed falls by half. Read a low half-life as rapid decline. Regarding `O=c1ccc2ccc(O)cc2o1` [7-hydroxycoumarin, reference compound], in “in vitro [1]”, the half-life amounted to 0.263 h.
On to `Cc1nccn1CCCCOc1cc2oc(=O)ccc2cc1O` [Compound 6b, 6-Hydroxyl-7-(4-(2-methylimidazole-1-yl)butoxy)-2H-benzopyran-2-one], for which the “anti-HBV activity (in words)” value with HBV was “moderate anti-HBV activity”. In addition, the half-life in the data set “in vitro [2]” and in “in vitro [1]” was more than 5 h in each case.
As for `Cc1nccn1CCCCCOc1cc2oc(=O)ccc2cc1O` [Compound 6c, 6-Hydroxyl-7-(5-(2-methylimidazole-1-yl)pentyloxy)-2H-benzopyran-2-one], the “anti-HBV activity (in words)” value in the data set with HBV is reported as “moderate anti-HBV activity”. For the same compound, the half-life in the data set “in vitro [2]” and in the data set “in vitro [1]” was more than 5 h each time.
As to `Cc1nccn1CCCCCCOc1cc2oc(=O)ccc2cc1O` [Compound 6d, 6-Hydroxyl-7-(6-(2-methylimidazole-1-yl)hexyloxy)-2H-benzopyran-2-one], the half-life in “in vitro [2]” and in the data set “in vitro [1]” was more than 5 h throughout.
As to `O=c1ccc2cc(O)c(O)cc2o1` [Esculetin, 6,7-dihydroxy-2-H-1-benzopyran-2-one], in the data set on duck hepatitis B virus, the “levels of HBsAg and HBeAg in duck serum” value was “can reduce the levels of HBsAg and hepatitis B e antigen (HBeAg) in duck serum”. Also, the hepatic fibrosis entry in the data set on hepatic fibrosis was “improvement in hepatic fibrosis”. Besides, the “Newcastle disease virus replication” value with Newcastle disease virus is on record as “inhibited Newcastle disease virus replication well”.
In the data set “in vitro [2]”, `C[C@]12CC[C@H]3[C@@H](CCC4=CC(=O)CC[C@@]43C)[C@@H]1CC[C@@H]2O` [testosterone, reference compound] yielded a half-life of 0.4 h.
